Columns and labels:
[1] = biological target: Human immunodeficiency virus type 1 reverse transcriptase (Human immunodeficiency virus 1) (UniProt Q72547); assay: (§1) Inhibition of HIV1 reverse transcriptase activity assessed as residual enzyme activity by poly(rA)n.oligo(dT)12-18-directed incorporation of [3H]dTTP into DNA
[2] = biological target: Human immunodeficiency virus type 1 reverse transcriptase (Human immunodeficiency virus 1, UniProt Q72547); assay: as §1
[3] = test system: Human immunodeficiency virus 1; assay: Inhibition of HIV1 RNase H activity assessed as residual enzyme activity by poly(rA)n.oligo(dT)12-18-directed incorporation of [3H]dTTP into DNA at 100 uM relative to control
[4] = Inhibition of HIV2 reverse transcriptase-mediated DNA polymerase activity; design: species or system Human immunodeficiency virus 2

Row | Structure (SMILES) | IC90 [1] [µM] | IC50 [2] [µM] | Activity [3] [%] | IC50 [4] [µM]
1 | CCCCC/C=C\C/C=C\CCCCCCCC(=O)OC[C@H](CO[C@@H]1O[C@H](CO)[C@H](O)[C@H](O)[C@H]1O)OC(=O)CCCCCCCCCCCCCCC | > 100 | 38 | 100 | –
2 | OC[C@@H](O)CO[C@@H]1O[C@H](CO[C@H]2O[C@H](CO)[C@H](O)[C@H](O)[C@H]2O)[C@H](O)[C@H](O)[C@H]1O | – | > 100 | – | –
3 | CCCCCCCC/C=C\CCCCCCCC(=O)OC[C@H](CO[C@@H]1O[C@H](CO)[C@H](O)[C@H](O)[C@H]1O)OC(=O)CCCCCCCCCCCCCCC | > 100 | 65 | 100 | –
4 | CCCCCCCCCCCCCCCC(=O)OC[C@H](CO[C@@H]1O[C@H](CO)[C@H](O)[C@H](O)[C@H]1O)OC(=O)CCCCCCCCCCCCCCC | > 100 | > 100 | 100 | –
5 | CCCCCCCC/C=C\CCCCCCCC(=O)OC[C@H](CO[C@H]1O[C@H](CS(=O)(=O)O)[C@@H](O)[C@H](O)[C@H]1O)OC(=O)CCCCCCCCCCCCCCC | 0.076 | 0.024 | 66 | 0.034
6 | CCCCC/C=C\C/C=C\CCCCCCCC(=O)OC[C@H](CO[C@H]1O[C@H](CS(=O)(=O)O)[C@@H](O)[C@H](OC(=O)CCCCCCCCCCCCCCC)[C@H]1OC(=O)CCCCCCCCCCCCCCC)OC(=O)CCCCCCCCCCCCCCC | 14 | 2.95 | 100 | –
7 | CCCCC/C=C\C/C=C\CCCCCCCC(=O)OC[C@H](CO[C@@H]1O[C@H](CO[C@H]2O[C@H](CO)[C@H](O)[C@H](OC(=O)CCCCCCCCCCCCCCC)[C@H]2O)[C@H](O)[C@H](O)[C@H]1O)OC(=O)CCCCCCCCCCCCCCC | > 100 | 99.4 | 100 | –
8 | CCCCCCCCCCCCCCCC(=O)OC[C@H](CO[C@H]1O[C@H](CS(=O)(=O)O)[C@@H](O)[C@H](O)[C@H]1O)OC(=O)CCCCCCCCCCCCCCC | 0.465 | 0.112 | 45 | –
9 | OC[C@@H](O)CO[C@H]1O[C@H](CO)[C@@H](O)[C@H](O)[C@H]1O | – | > 100 | – | –
10 | CCCCC/C=C\C/C=C\CCCCCCCC(=O)OC[C@H](CO[C@H]1O[C@H](CS(=O)(=O)O)[C@@H](O)[C@H](O)[C@H]1O)OC(=O)CCCCCCCCCCCCCCC | 0.28 | 0.077 | 100 | –
11 | O=S(=O)(O)C[C@H]1O[C@H](OC[C@H](O)CO)[C@H](O)[C@@H](O)[C@@H]1O | > 100 | 75 | – | –
12 | OC[C@@H](O)CO[C@@H]1O[C@H](CO)[C@H](O)[C@H](O)[C@H]1O | – | > 100 | – | –

— ChEMBL document CHEMBL1150919, “The inhibition of the reverse transcriptase of HIV-1 by the natural sulfoglycolipids from cyanobacteria: contribution of different moieties to their high potency” (J Nat Prod, 1998)
